Here are results for 19 compounds from US10689383B2, “Optionally fused heterocyclyl-substituted derivatives of pyrimidine useful for the treatment of inflammatory, metabolic, oncologic and autoimmune diseases” (NUEVOLUTION A/S, priority 2014, dated 2020).

Test [1] deals with Th17 cells. Put plainly: Th17 Assay (IL-17 levels in supernatants by ELISA). The format is cell-based. The conditions noted are these: Homo sapiens; read-out: Th17 activity range @ 1 μM (% inhibition). Here is the method: The activity of the compounds was evaluated using a Fluorescence Polarization (FP) Assay and, in most cases, a Th17 Assay and/or RORγ Reporter assay (also referred to as Gal4 assay). The FP assay is an in vitro assay monitoring binding within the ligand binding pocket. The RORγ and the Th17 assays are both cell-based assays monitoring functional activity of the compound assayed.
Human peripheral blood mononuclear cells (PBMCs) were isolated from buffy coats of healthy human volunteers using the Ficoll paque PLUS kit (GE Healthcare, cat no 17-1440-02), as instructed by the manufacturer. Naive CD4+ T cells were isolated with Naive CD4+ T cell kit, human (Milteny Biotec, cat no 130-094-131). The following modifications were made to the manufacturer's protocol: 1) Incubation with Biotin-Antibody Cocktail and Anti-Biotin MicroBeads was prolonged to 30 minutes, and 2) Cells were washed with 40 mL of Miltenyi buffer. Differentiation of Th17 cells in anti-CD3 (BD Pharmingen, 5 μg/ml) coated 96-well plates (400,000 cells/well, 160 μl RPMI 1640+10% Fetal Bovine Serum) containing 5 μg/ml anti-CD28 (BD Pharmingen), 10 ng/ml IL-2 (R&D Systems), 2.5 ng/ml TGFβ-1 (R&D Systems), 20 ng/ml IL-1β (R&D Systems), 20 ng/ml IL-6 (R&D Systems), 30 ng/ml IL-23 (R&D Systems), 2.5 μg/ml anti-IL-4 (R&D Systems) and 1 μg/ml anti-IFNγ (R&D Systems) and with test compound during the entire differentiation (or vehicle, 0.1% DMSO for control). Test compounds were tested in triplicates, diluted 1000-fold in medium (final DMSO concentration is 0.1%). Incubated for seven days at 37° C., 5% CO2, 95% humidity, and 2-fluoro-4′-[[4-(4-pyridinylmethyl)-1-piperazinyl]methyl]-α,α-bis(trifluoromethyl)-[1,1′-biphenyl]-4-methanol (SR2211 Calbiochem, Cat. No. 557353) was used as positive control. As negative control, cells were differentiated into Th0 using 5 μg/ml anti-CD28 (BD Pharmingen), 10 ng/ml IL-2 (R&D Systems), 2 μg/ml anti-IL4 (R&D Systems) and 2 μg/ml anti-IFNγ (R&D Systems) are negative control. IL-17 levels in supernatants were measured with ELISA (R&D Systems).
On the technique in general: In an ELISA, binding on a coated surface is turned into a signal by an enzyme label.

Test [2] deals with T1, human RORγt (Ligand Binding Domain) (Homo sapiens, UniProt P51449).
T1 construct: purchased Crelux (Planegg, Germany) batch no PC5032-1
T1 sequence (P51449 269-508 limits assumed): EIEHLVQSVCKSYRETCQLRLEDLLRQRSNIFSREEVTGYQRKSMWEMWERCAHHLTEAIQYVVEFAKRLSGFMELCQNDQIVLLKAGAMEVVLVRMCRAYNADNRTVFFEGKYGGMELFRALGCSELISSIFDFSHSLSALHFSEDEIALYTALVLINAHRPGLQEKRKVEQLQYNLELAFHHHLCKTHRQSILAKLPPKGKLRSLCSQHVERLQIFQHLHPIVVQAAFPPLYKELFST
Put plainly: Fluorescence Polarization (FP) Assay. The conditions noted are these: Fluorescence Polarization (FP) Assay; values given as upper bounds of activity ranges; read-out: FP activity range. An outline of the steps: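 In vitro FP binding assay monitoring ligand binding within the ligand binding pocket. Probe is a TAMRA-labelled RORγt ligand (MW 910 g/mole); DMSO served as negative control.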
A general note: Polarisation of emitted light reports the rotation of a fluorescent probe.

In test [3] the target is T2, yeast Gal4-DNA binding domain fused to the ligand binding domain of human RORγ (Homo sapiens, UniProt P51449).
T2 construct: host or cells: HEK293t
T2 sequence (P51449 269-508 limits assumed): T1 sequence (P51449 269-508 limits assumed)
Put plainly: RORγ Reporter Assay (Gal4). The note with it: values given as lower bounds of ranges; for Gal4 activity range @ 1 μM (% inhibition): RORγ Reporter Assay (Gal4) at 1 μM. The class given is cell-based. In a few lines:
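HEK293t reporter cells expressing the hybrid, with Gal4-UAS-driven firefly luciferase, treated in triplicate with compound at 1,000 nM and 100 nM (0.1% DMSO) in medium with 10% charcoal-stripped FBS for 24 h at 37 °C. Luminescence read; percent reduction of RLU calculated relative to vehicle.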
(A reporter such as luciferase makes a cellular process visible.)

Bounds are passed on as bounds.

For the compound `COC(C)(C)CC(C)Nc1ncnc(N2CCCC2c2ccc(C(F)(F)F)cc2)c1F` (stereo not drawn) [Example 16, 5-fluoro-N-(3-methoxy-1,3-dimethyl-butyl)-6-[2-[4-(trifluoromethyl)phenyl]pyrrolidin-1-yl]pyrimidin-4-amine], the inhibition (commonly how much of the control response was suppressed) at 1 µM in test [1] is greater than 0%.

`O=C(O)Cc1ccc(CNc2ncnc(N3CCC[C@@H]3c3ccc(C(F)(F)F)cc3)c2F)cc1` [Example 81, 2-[4-[[[5-fluoro-6-[(2R)-2-[4-(trifluoromethyl)phenyl]pyrrolidin-1-yl]pyrimidin-4-yl]amino]methyl]phenyl]acetic acid]: the IC50 in test [2] was less than 500 nM. The inhibition at 1 µM in test [1] is greater than 80%. The “Gal4 activity range @ 1 μM (% inhibition)” value in test [3] is given as greater than 80 % inhibition.

Turning to `O=C(O)Cc1ccc(COc2ncnc(NCc3ccc(C(F)(F)F)cc3)c2F)cc1` [Example 83, 2-[4-[[5-fluoro-6-[[4-(trifluoromethyl)phenyl]methylamino]pyrimidin-4-yl]oxymethyl]phenyl]acetic acid], the inhibition at 1 µM in test [1] is greater than 20%.

Consider `Fc1c(NCc2ccc(Cn3ccnc3)cc2)ncnc1N1CCCC1c1ccc(C(F)(F)F)cc1` (stereo not drawn) [Example 94, 5-fluoro-N-[[4-(imidazol-1-ylmethyl)phenyl]methyl]-6-[2-[4-(trifluoromethyl)phenyl]pyrrolidin-1-yl]pyrimidin-4-amine], for which the IC50 in test [2] was less than 500 nM. Also, the inhibition at 1 µM in test [1] is greater than 80%. For the same compound, in test [3] (RORγ Reporter Assay (Gal4) at 0.1 μM), the “Gal4 activity range @ 0.1 μM (% inhibition)” value was greater than 80 % inhibition. In test [3], the “Gal4 activity range @ 1 μM (% inhibition)” value was greater than 80 % inhibition.

For the compound `O=C(O)Cc1ccc(COc2ncnc(N3CCCC3c3ccc(C(F)(F)F)cc3)c2F)cc1` (stereo not drawn) [Example 79, 2-[4-[[5-fluoro-6-[2-[4-(trifluoromethyl)phenyl]pyrrolidin-1-yl]pyrimidin-4-yl]oxymethyl]phenyl]acetic acid], the IC50 in test [2] was less than 500 nM. The inhibition at 1 µM in test [1] was greater than 50%. For the same compound, in test [3], the “Gal4 activity range @ 1 μM (% inhibition)” value is recorded as greater than 50 % inhibition.

In the case of `COc1ccc(Cn2ccc3c(N4CCCC4c4ccc(C(F)(F)F)cc4)ccnc32)cc1OC` (stereo not drawn) [Example 67, 1-[(3,4-dimethoxyphenyl)methyl]-4-[2-[4-(trifluoromethyl)phenyl]pyrrolidin-1-yl]pyrrolo[2,3-b]pyridine], the IC50 in test [2] was less than 2000 nM. In addition, the inhibition at 1 µM in test [1] is greater than 80%. In test [3], the “Gal4 activity range @ 1 μM (% inhibition)” value is recorded as greater than 80 % inhibition.

In the case of `CC(C)C[C@@H](Nc1ncnc(N2CC(C)CC2c2ccc(C(F)(F)F)cc2)c1F)C(=O)O` (stereo partly drawn) [Example 33, (2R)-2-[[5-fluoro-6-[4-methyl-2-[4-(trifluoromethyl)phenyl]pyrrolidin-1-yl]pyrimidin-4-yl]amino]-4-methyl-pentanoic acid], in test [2], the IC50 is less than 10000 nM. For the same compound, the inhibition at 1 µM in test [1] is greater than 20%.

Regarding `CC(C)(C)C[C@@H](Nc1ncnc(N2CCCC2c2ccc(C(F)(F)F)cc2Cl)c1F)C(N)=O` (stereo partly drawn) [Example 35, (2R)-2-[[6-[2-[2-chloro-4-(trifluoromethyl)phenyl]pyrrolidin-1-yl]-5-fluoro-pyrimidin-4-yl]amino]-4,4-dimethyl-pentanamide], in test [2], the IC50 was less than 500 nM. Also, the inhibition at 1 µM in test [1] was greater than 50%.

Take `CC(C)C[C@@H](Oc1ncnc(N2CCC[C@@H]2c2ccc(C(F)(F)F)cc2)c1F)C(N)=O` (single isomer, unassigned) [Example 77, (2R)-2-[5-fluoro-6-[(2R)-2-[4-(trifluoromethyl)phenyl]pyrrolidin-1-yl]pyrimidin-4-yl]oxy-4-methyl-pentanamide or (2R)-2-[5-fluoro-6-[(2S)-2-[4-(trifluoromethyl)phenyl]pyrrolidin-1-yl]pyrimidin-4-yl]oxy-4-methyl-pentanamide]: the inhibition at 1 µM in test [1] is greater than 50%.

On to `CC(C)(C)C[C@@H](Nc1ncnc(N2CCCC2c2ccc(C(F)(F)F)cc2Cl)c1F)C(=O)O` (stereo partly drawn) [Example 36, (2R)-2-[[6-[2-[2-chloro-4-(trifluoromethyl)phenyl]pyrrolidin-1-yl]-5-fluoro-pyrimidin-4-yl]amino]-4,4-dimethyl-pentanoic acid], for which, in test [2], the IC50 is less than 2000 nM. Also, the inhibition at 1 µM in test [1] is greater than 50%.

On to `CC(C)(C)C[C@@H](Nc1ncnc(N2CCCC2c2ccc(C(C)(C)C)cc2)c1F)C(N)=O` (stereo partly drawn) [Example 19, (2R)-2-[[6-[2-(4-tert-butylphenyl)pyrrolidin-1-yl]-5-fluoro-pyrimidin-4-yl]amino]-4,4-dimethyl-pentanamide], for which the IC50 in test [2] was less than 500 nM. The inhibition at 1 µM in test [1] is greater than 80%.

Turning to `CC(C)(C)C[C@@H](Nc1nc(C(F)(F)F)nc(N2CCCC2c2ccc(C(F)(F)F)cc2)c1F)C(N)=O` (stereo partly drawn) [Example 13, (2R)-2-[[5-fluoro-2-(trifluoromethyl)-6-[2-[4-(trifluoromethyl)phenyl]pyrrolidin-1-yl]pyrimidin-4-yl]amino]-4,4-dimethyl-pentanamide], the IC50 in test [2] was less than 10000 nM. In addition, the inhibition at 1 µM in test [1] was greater than 20%.

Take `COc1ccc(C[C@H](CO)Nc2ncnc(N3CCCC3c3ccc(C(F)(F)F)cc3)c2F)cc1` (stereo partly drawn) [Example 29, (2R)-2-[[5-fluoro-6-[2-[4-(trifluoromethyl)phenyl]pyrrolidin-1-yl]pyrimidin-4-yl]amino]-3-(4-methoxyphenyl)propan-1-ol]: the IC50 in test [2] is less than 1000 nM. In addition, the inhibition at 1 µM in test [1] is greater than 50%.

Turning to `NC(=O)Cc1ccc(CNc2ncnc(N3CCCC3c3ccc(C(F)(F)F)cc3)c2F)cc1` (stereo not drawn) [Example 40, 2-[4-[[[5-fluoro-6-[2-[4-(trifluoromethyl)phenyl]pyrrolidin-1-yl]pyrimidin-4-yl]amino]methyl]phenyl]acetamide], the IC50 in test [2] is less than 1000 nM. Besides, in test [1], the inhibition at 1 µM is greater than 80%.

For the compound `CC1CCN(c2ncnc(N[C@H](CC(C)(C)C)C(N)=O)c2F)C1c1ccc(C(F)(F)F)cc1` (stereo partly drawn) [Example 38, (2R)-2-[[5-fluoro-6-[3-methyl-2-[4-(trifluoromethyl)phenyl]pyrrolidin-1-yl]pyrimidin-4-yl]amino]-4,4-dimethyl-pentanamide], the IC50 in test [2] is less than 2000 nM. Besides, in test [1], the inhibition at 1 µM was greater than 50%.

Consider `CC1CC(c2ccc(C(F)(F)F)cc2)N(c2ncnc(N[C@H](CC(C)(C)C)C(N)=O)c2F)C1` (stereo partly drawn) [Example 18, (2R)-2-[[5-fluoro-6-[4-methyl-2-[4-(trifluoromethyl)phenyl]pyrrolidin-1-yl]pyrimidin-4-yl]amino]-4,4-dimethyl-pentanamide], for which, in test [2], the IC50 is less than 500 nM. In test [1], the inhibition at 1 µM is greater than 80%.

Take `CC(C)(C)C[C@@H](Nc1cc(N2CCCC2c2ccc(C(F)(F)F)cc2)ncn1)C(N)=O` (stereo partly drawn) [Example 6, (2R)-4,4-dimethyl-2-[[6-[2-[4-(trifluoromethyl)phenyl]pyrrolidin-1-yl]pyrimidin-4-yl]amino]pentanamide]: in test [2], the IC50 was less than 10000 nM. In addition, the inhibition at 1 µM in test [1] is greater than 20%.

Turning to `CC(C)C[C@@H](Oc1ncnc(-n2nccc2-c2ccc(C(F)(F)F)cc2)c1F)C(N)=O` [Example 80, (2R)-2-[5-fluoro-6-[5-[4-(trifluoromethyl)phenyl]pyrazol-1-yl]pyrimidin-4-yl]oxy-4-methyl-pentanamide], in test [1], the inhibition at 1 µM was greater than 50%.

As to `N#Cc1ccc(CNc2ncnc(N3CCCC3c3ccc(C(F)(F)F)cc3)c2F)cc1` (stereo not drawn) [Example 88, 4-[[[5-fluoro-6-[2-[4-(trifluoromethyl)phenyl]pyrrolidin-1-yl]pyrimidin-4-yl]amino]methyl]benzonitrile], the IC50 in test [2] was less than 500 nM. The inhibition at 1 µM in test [1] is greater than 80%.
